Counter-ions that a name gives are not always drawn.
Columns and labels:
TRPA1 = target: T1, TRPA1 (Mus musculus, UniProt Q8BLA8); test: TRP channel functional assessment of immobilized CDVs (menthol, Fluo-4 calcium signal); type: biochemical, Murine; details: Fluo-4 loaded myoblast-derived CDVs on microfluidic chip; versus CDVs not administered menthol
T1 construct: containing Fluo-4 loaded myoblast-derived CDVs from the same culture; endogenous in cells
Text: FIG. 1. Schematic depicting the tests applied to CDVs to ascertain 1) innate channel functionality and 2) recuperative potential for cellular respiratory and proliferative capacities. 1) Cell-free assays were comprised of examining specific TRP channel activation by menthol (TRPA1) or magnetic fields (TRPC1). 2) Cell-based assays entailed administering wild type CDVs to TRPC1-knockdown myoblasts followed by testing for recuperation of cellular proliferative and mitochondrial respiratory capacities.
FIG. 4. A) Schematics of the CDV immobilization 1), loading 2), and TRP channel functional assessment 3). […] Red fluorescence is Texas Red as part of the biochemical linker, the dotted line indicates the edge of the print. […] Data were simultaneously recorded from 3 parallel channels of the same microfluidic chip containing Fluo-4 loaded myoblast-derived CDVs from the same culture, 2 channels with menthol administration and one without (negative control). […] Representative calcium responses (Rate of Rise (ROR) normalized to starting value) from intact C2C12 myoblasts D) or CDVs E) derived from wild type C2C12 myoblasts (left) or C2C12 CRISPR/Cas9 knockdown myoblasts, 60 (middle), and 61 (right), in response to 10 min magnetic field exposure (1.5 mT) while in suspension immediately before reading. […]

[1] = test system: patient-derived tumor xenografts; test: Patient-derived tumor xenografts in NSG mice, DOX and/or PEMF; type: in vivo; details: 20 mg/kg DOX intravenously and/or PEMF 1 h weekly for 5 weeks
Protocol: (A) Schematic of PEMF and DOX exposures regimes used on mice hosting patient-derived tumor xenografts. Implanted tumors were allowed to grow for 3 weeks before the initiation of DOX and/or PEMF treatments. Tumor volumes were measured each week while apoptotic cell determination was performed at the end of the study. Each data point represents the mean from 5 experimental runs derived from the tumors obtained from 5 patients, each of which was equally divided amongst the 5 treatment groups. (B) Changes in tumor volume (mm^3) for 5 weeks. (C) Representative scatter dot-plots showing cell population of dissociated tumors sorted based on annexin and propidium iodide staining. (D) Bar chart represents pooled data of apoptotic cell percentages analyzed using flow cytometry. N=5 mice, with *, p<0.05, **, p<0.01, and #p<0.0001. The error bars are expressed as the standard error of the mean.
The NSG mice were purchased from Jackson's laboratory and used at 8-10 weeks of age. Briefly, each female NSG mouse was implanted with a subcutaneous 60-day (0.36 mg) slow-release estradiol pellet (Innovative Research of America). Each patient tumor was equally divided into 5 chunks and implanted into the dorsal flank of 5 animals corresponding to the 5 different treatment groups. […] At the end of the study, tumor volume was measured and isolated for apoptotic cell determination. […]

MCF-7 cells [2] = test: Cyquant DNA content of MCF-7 cells after DOX and PEMF; type: cell-based; details: DOX 100 nM; 3 mT PEMF 1 h daily for 3 days
Protocol: (§1) FIG. 13. […] (A) Schematic of PEMF and DOX treatment regime for DNA quantification. Cells were exposed to 3 mT for 1 h daily for 3 successive days. DOX (100 nM) was administered on the final day 1 h before the last PEMF exposure. Cellular DNA content was measured 24 h after the last PEMF exposure. (B) Bar chart of pooled data for Cyquant DNA content in fold change 24 h post-DOX and PEMF treatments. (C) Colony formation paradigm for MCF-7 cells treated with DOX and PEMFs. (D) MCF-7 colony formation in the presence of 10 and 20 nM DOX, with and without PEMF exposure as indicated. Cells were seeded at a low density of 100 cells per well. (E) Colony survival in 10 nM DOX under low-density conditions. […] (F) MCF-7 colony formation in the presence of 10 and 20 nM DOX, with and without PEMF exposure under high-density seeding of 1000 cells per well. The images on the right are the zoom-in images of cells under the same treatment paradigm. […] (H) Absolute DCH2FDA-ROS fluorescence from MCF-7 cells. […]
(§2) For cell enumeration using trypan blue exclusion assay, MCF-7, MDA-MB-231, or MCF10A cells were seeded at 6000 cells/cm^2 per well of a 6-well plate. […] Cyquant stained DNA was measured using at 480/520 nm using Cytation 5 microplate reader (BIOTEK).

MCF-7 cells [3] = test: Clonogenic assay of MCF-7 cells with DOX and PEMF; type: cell-based; details: 20 nM DOX, low density of 100 cells per well
Protocol: as §1, with “well.” for “well. The images on the right are the zoom-in images of cells under the same treatment paradigm.”
In vitro clonogenic assay was performed using crystal violet staining (24). […] The mean survival factor (colony count) was determined as the number of surviving cells over the number of cells plated and normalized to the survival factor of the control group expressed as fold change. The colony size relative frequency was determined by binning colonies into several bins, according to their relative size from the smallest to the largest colonies after normalizing to the total number of cells.

MCF-7 xenograft = MCF-7 xenograft in mice, DOX and/or PEMF; type: in vivo; details: weekly PEMF and DOX exposures
Protocol: (A) Schematic of weekly PEMF and DOX exposures on MCF-7 xenograft in mice. Implanted cells were allowed to grow for 3 weeks before the initiation of DOX and/or PEMF treatment. Apoptotic cell determination was performed at the end of the study. […] N=6 mice, with *, p<0.05, **, p 1137<0.01, and #, p<0.0001. The error bars are expressed as the standard error of the mean.
The NSG mice were purchased from Jackson's laboratory and used at 8-10 weeks of age. Briefly, each female NSG mouse was implanted with a subcutaneous 60-day (0.36 mg) slow-release estradiol pellet (Innovative Research of America). […] The tumors were allowed to grow for 3 weeks. For MCF-7, 1×10^6 cells were counted and mixed in a 40-60% ratio with Matrigel Growth Factor (Bio Laboratories, Cat No. 354230). The cells are injected subcutaneously into the dorsal flank of the animals corresponding to the different treatment groups. The animals were given 20 mg/kg DOX intravenously and/or PEMFs stimulation for 1 h weekly for 5 weeks. At the end of the study, tumor volume was measured and isolated for apoptotic cell determination.
For apoptotic cell determination, the tumors were dissociated to single cells using the MACS Tumor Dissociation Kit in combination with the gentleMACS Dissociator (Miltenyi Biotec) as according to the manufacturer's protocol. After dissociation, the cells were filtered through a 30 μm MACS SmartStrainer. […]

MCF-7/TRPC1 cells = test: DNA content and colony formation of TRPC1 overexpressing MCF-7 cells with DOX and PEMF; type: cell-based; details: TRPC1 overexpression versus vector cells
Protocol: FIG. 17. […] (A) PEMF and DOX treatment regime for MCF-7/TRPC1 cell DNA quantification. (B) DNA fold change relative to 0 mT vector cells. Statistical analysis was done using the two-sample t-test. (C) Colony formation after 10 days in the presence of 0 nM, 10 nM or 20 nM DOX, without PEMF exposure. Images of colony formation and the quantification of colony size frequency distribution normalized to the total number of colonies in the presence of 10 nM DOX for (D) vector and (E) MCF-7/TRPC1 cells or 20 nM DOX for (F) vector and (G) MCF-7/TRPC1 cells, concomitant with daily PEMF exposure. *, p<0.05, **, p<0.01 and ***, p<0.001 indicate the statistical difference between the respective 0 mT and 3 mT condition within the same bin. (H) PEMF-modulated proliferation of TRPC1-silenced MCF-7 cells 48 h post dsiRNA transfection. […]
as §2
In vitro clonogenic assay was performed using crystal violet staining (24). […] The mean survival factor (colony count) was determined as the number of surviving cells over the number of cells plated and normalized to the survival factor of the control group expressed as fold change. […]

T1 sequence (Q8BLA8 whole entry): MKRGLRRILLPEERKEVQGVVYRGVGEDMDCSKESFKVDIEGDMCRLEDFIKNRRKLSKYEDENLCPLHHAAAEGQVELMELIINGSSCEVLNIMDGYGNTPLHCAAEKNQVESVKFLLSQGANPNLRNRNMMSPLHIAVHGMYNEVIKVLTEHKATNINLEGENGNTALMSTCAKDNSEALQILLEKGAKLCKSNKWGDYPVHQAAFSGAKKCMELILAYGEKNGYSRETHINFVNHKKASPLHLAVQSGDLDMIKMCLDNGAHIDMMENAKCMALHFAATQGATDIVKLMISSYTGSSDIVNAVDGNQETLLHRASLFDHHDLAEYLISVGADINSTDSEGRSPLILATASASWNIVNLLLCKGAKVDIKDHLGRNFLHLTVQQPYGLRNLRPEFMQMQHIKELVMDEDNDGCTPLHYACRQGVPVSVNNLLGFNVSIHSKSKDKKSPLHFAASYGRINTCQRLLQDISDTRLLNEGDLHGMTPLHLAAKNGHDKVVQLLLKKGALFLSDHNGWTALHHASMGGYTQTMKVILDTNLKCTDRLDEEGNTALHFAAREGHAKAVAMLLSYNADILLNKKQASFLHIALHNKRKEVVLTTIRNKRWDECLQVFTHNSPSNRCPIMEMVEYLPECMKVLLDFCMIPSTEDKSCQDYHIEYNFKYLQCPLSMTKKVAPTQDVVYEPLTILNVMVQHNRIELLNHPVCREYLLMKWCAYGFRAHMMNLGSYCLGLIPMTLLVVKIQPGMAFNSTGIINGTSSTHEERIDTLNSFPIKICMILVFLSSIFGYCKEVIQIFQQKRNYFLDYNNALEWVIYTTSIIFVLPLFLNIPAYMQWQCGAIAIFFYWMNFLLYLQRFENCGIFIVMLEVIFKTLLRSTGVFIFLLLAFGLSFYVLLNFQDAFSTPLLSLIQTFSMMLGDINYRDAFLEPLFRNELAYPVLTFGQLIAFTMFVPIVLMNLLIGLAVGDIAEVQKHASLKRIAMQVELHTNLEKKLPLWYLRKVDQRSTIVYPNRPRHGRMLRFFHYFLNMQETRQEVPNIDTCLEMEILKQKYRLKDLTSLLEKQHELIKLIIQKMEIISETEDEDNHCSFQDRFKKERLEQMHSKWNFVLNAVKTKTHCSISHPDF

Structure (SMILES)	intra-CDV calcium concentration (TRPA1)	tumor growth [1]	MCF-7 cell vulnerability to doxorubicin (DNA content) (MCF-7 cells [2])	colony number (MCF-7 cells [3])	MCF-7 tumor growth (MCF-7 xenograft)	sensitivity of MCF-7 cells to doxorubicin (MCF-7/TRPC1 cells)
CC1CCC(C(C)C)C(O)C1 (stereo not drawn) [Menthol, menthol]	increases in intra-CDV calcium concentration					
COc1cccc2c1C(=O)c1c(O)c3c(c(O)c1C2=O)C[C@@](O)(C(=O)CO)C[C@@H]3O[C@H]1C[C@H](N)[C@H](O)[C@H](C)O1 [DOX, Doxorubicin hydrochloride]		synergize with DOX to inhibit tumor growth in vivo	enhances MCF-7 cell vulnerability to doxorubicin	too few to quantify accurately	synergize with doxorubicin to inhibit MCF-7 tumor growth in vivo	TRPC1 overexpression sensitizes MCF-7 cells to doxorubicin
